The structures appear in SMILES notation.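 These data come from cells grown in 96-well plates and exposed to compound for 48 hours at five concentrations. GI50 marks 50% less growth.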 Calls of active or inactive are those of the source. Cut-off read from the data, not from the text of the source: active = GI50 up to about 1.1 µM and inactive = higher.

Some test systems named below: 786-0; A498; A549; CAKI-1; CCRF-CEM; DU-145; HT-29; MOLT-4; NCI-H460; OVCAR-3; OVCAR-4; OVCAR-5; OVCAR-8; RPMI-8226; RXF 393; SK-OV-3; T47D; U-251; UO-31; NCI-H522.
Common to all, as to experiment: NCI anticancer screen, dose series, 48 h

As for `Cn1c(=O)cc(NCCc2ccccc2)[nH]c1=O`, the GI50 is 41 µM (inactive) in the assay on 786-0; 46 µM (inactive) in the assay with A498; 38.8 µM (inactive) with A549; 22.8 µM (inactive) with CAKI-1; 31.7 µM (inactive) in the assay with CCRF-CEM; 52 µM (inactive) with DU-145. Further, the GI50 was 25.5 µM (inactive) with HT-29; 35.2 µM (inactive) in the assay on MOLT-4; 34.2 µM (inactive) in the assay with NCI-H460; 16.1 µM (inactive) in the assay on OVCAR-3; > 100 µM (inactive) in the assay on OVCAR-4; > 100 µM (inactive) with OVCAR-5. The GI50 in the assay with OVCAR-8 is 43.4 µM (inactive); in the assay on RPMI-8226 it was 6.12 µM (inactive); with RXF 393 it was 57.8 µM (inactive); in the assay with SK-OV-3, 53.6 µM (inactive); with T47D it was 54.5 µM (inactive); with U-251 it was 61.1 µM (inactive). Moreover, the GI50 with UO-31 was 34.1 µM (inactive).
For `CCCC1c2c(ccc3ccccc23)Oc2ccc3ccccc3c21`, the GI50 with 786-0 was > 100 µM (inactive); in the assay on A498 it was 23.7 µM (inactive); in the assay with A549, 47.5 µM (inactive); with CAKI-1 it was > 100 µM (inactive); with DU-145, 84.3 µM (inactive); in the assay with HT-29 it was 28.1 µM (inactive). Moreover, the GI50 with MOLT-4 was 37.6 µM (inactive); with NCI-H460, 88.3 µM (inactive); in the assay on NCI-H522, 25.5 µM (inactive); in the assay with OVCAR-3 it was 61.4 µM (inactive); in the assay with OVCAR-4 it was > 100 µM (inactive); in the assay on OVCAR-5, 54.1 µM (inactive). The GI50 is > 100 µM (inactive) in the assay on OVCAR-8; 45.2 µM (inactive) in the assay with RPMI-8226; 29.1 µM (inactive) in the assay with RXF 393; > 100 µM (inactive) in the assay on SK-OV-3; 14.6 µM (inactive) in the assay with T47D; 40.2 µM (inactive) in the assay on U-251. The GI50 in the assay on UO-31 was > 100 µM (inactive).
`COc1ccc2c(c1)c1c(n2CCN(C)C)-c2cccc(OC)c2CC1`: the GI50 in the assay with 786-0 was 22.3 µM (inactive); with A498 it was 19.1 µM (inactive); in the assay on A549 it was 12.3 µM (inactive); with CAKI-1 it was 13.1 µM (inactive); in the assay on CCRF-CEM, 2.65 µM (inactive); with DU-145 it was 17.7 µM (inactive). Besides, the GI50 in the assay with HT-29 was 3.3 µM (inactive); in the assay with MOLT-4 it was 7.14 µM (inactive); in the assay with NCI-H460, 14.6 µM (inactive); in the assay on NCI-H522 it was 3.88 µM (inactive); in the assay on OVCAR-3 it was 16.1 µM (inactive); in the assay on OVCAR-4 it was 15.8 µM (inactive). In addition, the GI50 in the assay with OVCAR-5 was 15.7 µM (inactive); in the assay with OVCAR-8, 18.7 µM (inactive); in the assay on RPMI-8226 it was 2.05 µM (inactive); with SK-OV-3, 18.2 µM (inactive); with T47D it was 10 µM (inactive); in the assay with U-251, 11.6 µM (inactive). Also, the GI50 in the assay on UO-31 is 14.9 µM (inactive).
Consider `CN1C(=O)C(CC=O)(C(C)(C)C)c2ccccc21` (stereo not given), for which the GI50 in the assay with 786-0 is 41.8 µM (inactive); in the assay with A498, > 100 µM (inactive); in the assay on A549 it was > 100 µM (inactive); in the assay with CAKI-1 it was 54.7 µM (inactive); in the assay on CCRF-CEM, 60 µM (inactive); in the assay on DU-145, 56.4 µM (inactive). Also, the GI50 in the assay with MOLT-4 was 56.8 µM (inactive); with NCI-H460, > 100 µM (inactive); in the assay on OVCAR-3 it was > 100 µM (inactive); in the assay with OVCAR-4, > 100 µM (inactive); in the assay with OVCAR-5, > 100 µM (inactive); with RPMI-8226, 37.9 µM (inactive). Moreover, the GI50 with RXF 393 is > 100 µM (inactive); in the assay on SK-OV-3, > 100 µM (inactive); with T47D, 47.1 µM (inactive); in the assay with U-251 it was > 100 µM (inactive); with UO-31, 64 µM (inactive).
For `CC(C)(C)c1cc2c(c(C(C)(C)C)c1O)CC(=O)O2`, the GI50 in the assay on 786-0 was 26.5 µM (inactive); in the assay with A498, 32.1 µM (inactive); in the assay on A549, 31.2 µM (inactive); in the assay on CCRF-CEM it was 29.6 µM (inactive); in the assay with DU-145, 47.5 µM (inactive); in the assay with HT-29, 28.3 µM (inactive). Moreover, the GI50 with MOLT-4 is 35.1 µM (inactive); with NCI-H460, 37.7 µM (inactive); in the assay on NCI-H522 it was 46 µM (inactive); in the assay with OVCAR-3, 16.6 µM (inactive); in the assay on OVCAR-4, 27.7 µM (inactive); with OVCAR-5, 71.6 µM (inactive). The GI50 in the assay with OVCAR-8 was 32.2 µM (inactive); in the assay with RPMI-8226 it was 23.6 µM (inactive); in the assay on RXF 393, 22.1 µM (inactive); in the assay on SK-OV-3, 48.8 µM (inactive); in the assay with T47D it was 23.2 µM (inactive); with U-251, 41.9 µM (inactive). Moreover, the GI50 in the assay with UO-31 is 26.3 µM (inactive).
Regarding `c1ccc(C2SCC3=Nc4ccccc4CN32)cc1` (stereo not given), the GI50 in the assay on 786-0 was 21.3 µM (inactive); with A498 it was > 100 µM (inactive); with A549, 53.8 µM (inactive); in the assay with CAKI-1, > 100 µM (inactive); with CCRF-CEM it was 34.2 µM (inactive); with DU-145 it was 24.9 µM (inactive). The GI50 in the assay on HT-29 is 17.8 µM (inactive); in the assay with MOLT-4, 34.7 µM (inactive); with NCI-H460, 54 µM (inactive); in the assay with OVCAR-3, 0.78 µM (active); in the assay on OVCAR-4, 78.2 µM (inactive); in the assay on OVCAR-5 it was 25.8 µM (inactive). Further, the GI50 in the assay with OVCAR-8 was 18.2 µM (inactive); with RPMI-8226, 39.8 µM (inactive); in the assay with RXF 393, 10.8 µM (inactive); in the assay on SK-OV-3 it was 23.4 µM (inactive); with T47D, 25.8 µM (inactive); with U-251, 63 µM (inactive). The GI50 in the assay on UO-31 is 29.9 µM (inactive).
With `COc1cc2c(c(OC3OC(CO)C(O)C(O)C3O)c1)C(=O)CC(c1ccc(O)cc1)O2` (stereo not given), the GI50 with 786-0 is > 100 µM (inactive); in the assay on A498, > 100 µM (inactive); in the assay with A549, > 100 µM (inactive); in the assay on CAKI-1, > 100 µM (inactive); in the assay with CCRF-CEM, > 10 µM (inactive); with DU-145, > 100 µM (inactive). For the same molecule, the GI50 in the assay with HT-29, with MOLT-4, in the assay with NCI-H460, in the assay with NCI-H522, in the assay on OVCAR-3 and in the assay on OVCAR-4 was > 100 µM (inactive) throughout. Further, the GI50 in the assay on OVCAR-5, in the assay with OVCAR-8, with RPMI-8226, in the assay on SK-OV-3, in the assay with T47D and with U-251 was > 100 µM (inactive) in each case. Besides, the GI50 in the assay with UO-31 was > 100 µM (inactive).
As for `COc1cc(CSc2ccc(O)cc2)cc(OC)c1OC`, the GI50 with 786-0 is 55.3 µM (inactive); in the assay with A498, 93.3 µM (inactive); with A549 it was 48.4 µM (inactive); in the assay on CAKI-1, 34.6 µM (inactive); in the assay on CCRF-CEM, > 10 µM (inactive); in the assay on DU-145 it was 53.2 µM (inactive). Also, the GI50 was 50.4 µM (inactive) in the assay with HT-29; 25.5 µM (inactive) in the assay with MOLT-4; 37.6 µM (inactive) with NCI-H460; 29.3 µM (inactive) with NCI-H522; 41.6 µM (inactive) with OVCAR-3; 52.1 µM (inactive) with OVCAR-5. In addition, the GI50 with OVCAR-8 was 33.8 µM (inactive); in the assay with RPMI-8226, 21.3 µM (inactive); in the assay on RXF 393 it was > 100 µM (inactive); with SK-OV-3, 62.2 µM (inactive); in the assay on T47D, 22.6 µM (inactive); in the assay on U-251 it was 29.2 µM (inactive). For the same molecule, the GI50 in the assay with UO-31 is 14.5 µM (inactive).
As for `CC(C)(/N=N/C(C)(C)C(=N)N)C(=N)N`, the GI50 in the assay with 786-0, with A498, with A549, with CAKI-1, in the assay with DU-145 and in the assay on HT-29 was > 100 µM (inactive) throughout. In addition, the GI50 in the assay on MOLT-4, with NCI-H460, in the assay on NCI-H522, in the assay with OVCAR-3, in the assay on OVCAR-4 and in the assay with OVCAR-5 was > 100 µM (inactive) in each case. The GI50 in the assay with OVCAR-8, in the assay on RPMI-8226, in the assay on RXF 393, in the assay with SK-OV-3, in the assay on T47D and in the assay on U-251 was > 100 µM (inactive) throughout. In addition, the GI50 with UO-31 is > 100 µM (inactive).
With `COc1ccc2[nH]c(Cl)c(/C=C3/C(=O)N(c4ccccc4)c4ccccc43)c2c1`, the GI50 in the assay with 786-0 is 6.37 µM (inactive); in the assay on A498, 8.17 µM (inactive); with A549, 5.31 µM (inactive); in the assay on CAKI-1 it was 10.6 µM (inactive); in the assay on CCRF-CEM, 2.96 µM (inactive); with DU-145 it was 18.3 µM (inactive). Moreover, the GI50 was 3.98 µM (inactive) in the assay on HT-29; 3.82 µM (inactive) in the assay with MOLT-4; 3.55 µM (inactive) with NCI-H460; 3.25 µM (inactive) in the assay on NCI-H522; 3.37 µM (inactive) in the assay with OVCAR-3; 13.6 µM (inactive) in the assay with OVCAR-5. Further, the GI50 in the assay with OVCAR-8 is 6.44 µM (inactive); with RPMI-8226 it was 2.82 µM (inactive); with RXF 393 it was 15.9 µM (inactive); in the assay with SK-OV-3 it was 3.5 µM (inactive); in the assay on T47D it was 3.76 µM (inactive); with U-251, 3.98 µM (inactive). For the same molecule, in the assay on UO-31, the GI50 is 7.59 µM (inactive).
In the case of `C=C1CC[C@H]2C(C)=CC[C@H]3C(=C)C(=O)O[C@@H]3[C@@H]12` [EREMANTHIN], the GI50 in the assay on 786-0, in the assay with A498, in the assay with A549, in the assay with CAKI-1, in the assay with CCRF-CEM and with DU-145 was > 100 µM (inactive) in each case. Further, the GI50 in the assay with HT-29, with MOLT-4, with NCI-H460, in the assay on NCI-H522, in the assay on OVCAR-4 and with OVCAR-5 was > 100 µM (inactive) in each case. Further, the GI50 in the assay on OVCAR-8, in the assay on SK-OV-3, in the assay on T47D, in the assay with U-251 and in the assay with UO-31 was > 100 µM (inactive) in each case.

(Values after ChEMBL document CHEMBL1201862, “PubChem BioAssay data set” (2004).)
